In US12459899B2, “Isoquinolinone derivatives, method for preparing the same, and pharmaceutical composition for preventing or treating poly(ADP-ribose) polymerase-1-related diseases, comprising the same as active ingredient” (DIGMBIO. INC., priority 2019, dated 2025):

Molecular target: PARP-1 (poly[ADP-ribose] polymerase 1) enzyme (Homo sapiens (Human), UniProt P09874)
Assay: PARP-1 (poly[ADP-ribose] polymerase 1) enzyme inhibitory ability, Trevigen assay kit
Format: biochemical
Conditions: 1 nM compound; read-out: PAR P-1 Inhibitory ability at 1 nM
Protocol: In order to evaluate the PARP-1 (poly[ADP-ribose] polymerase 1) enzyme inhibitory ability of the compounds according to the present invention, an experiment was conducted as follows.
Specifically, in order to evaluate the PARP-1 (poly[ADP-ribose] polymerase 1) enzyme inhibitory ability of the compounds of Examples 1 to 276 according to the present invention, the PARP-1 (poly[ADP-ribose] polymerase 1) activity was investigated in the following manner using an assay kit purchased from Trevigen, Inc. (Catalog number: 4677-096-K). 50 μL of 1×PARP buffer (provided by Trevigen's kit) was dispensed into a 96-well plate coated with histones per each well, and then rehydrated for 30 minutes. After removing the 1×PARP buffer present in the well, PARP-1 (poly[ADP-ribose] polymerase 1) enzyme (0.5 unit/well) and 1 μM concentration or various concentrations of the compounds of Example 1 to 276 were added at room temperature and reacted for 10 minutes. Thereafter, each well was treated with 25 μL of 1×PARP cocktail (biotinylated NAD, activated DNA, provided by Trevigen's kit), and then reacted at room temperature for 1 hour. After the reaction was completed, each well was washed twice with PBS (7.5 mM Na2HPO4, 2.5 mM NaH2PO4, 145 mM NaCl) containing 0.1% triton X-100, and washed twice with PBS. Then, 50 μL of strep-HRP (streptavidin-linked peroxidase) was added and reacted at room temperature for 1 hour, and then washed twice with PBS containing 0.1% triton X-100, and washed twice with PBS. After removing all PBS, 50 μL of TACS-sapphire, a substrate, was added, and reacted at room temperature for 15 minutes while blocking the light. After the reaction was terminated by treatment with 50 μL of 5% phosphoric acid to each well, the absorbance was measured at 450 nm using a microplate reader Victor3 from PerkinElmer, Inc. to quantify the value.

Chain of PARP-1 (poly[ADP-ribose] polymerase 1) enzyme (P09874 whole entry): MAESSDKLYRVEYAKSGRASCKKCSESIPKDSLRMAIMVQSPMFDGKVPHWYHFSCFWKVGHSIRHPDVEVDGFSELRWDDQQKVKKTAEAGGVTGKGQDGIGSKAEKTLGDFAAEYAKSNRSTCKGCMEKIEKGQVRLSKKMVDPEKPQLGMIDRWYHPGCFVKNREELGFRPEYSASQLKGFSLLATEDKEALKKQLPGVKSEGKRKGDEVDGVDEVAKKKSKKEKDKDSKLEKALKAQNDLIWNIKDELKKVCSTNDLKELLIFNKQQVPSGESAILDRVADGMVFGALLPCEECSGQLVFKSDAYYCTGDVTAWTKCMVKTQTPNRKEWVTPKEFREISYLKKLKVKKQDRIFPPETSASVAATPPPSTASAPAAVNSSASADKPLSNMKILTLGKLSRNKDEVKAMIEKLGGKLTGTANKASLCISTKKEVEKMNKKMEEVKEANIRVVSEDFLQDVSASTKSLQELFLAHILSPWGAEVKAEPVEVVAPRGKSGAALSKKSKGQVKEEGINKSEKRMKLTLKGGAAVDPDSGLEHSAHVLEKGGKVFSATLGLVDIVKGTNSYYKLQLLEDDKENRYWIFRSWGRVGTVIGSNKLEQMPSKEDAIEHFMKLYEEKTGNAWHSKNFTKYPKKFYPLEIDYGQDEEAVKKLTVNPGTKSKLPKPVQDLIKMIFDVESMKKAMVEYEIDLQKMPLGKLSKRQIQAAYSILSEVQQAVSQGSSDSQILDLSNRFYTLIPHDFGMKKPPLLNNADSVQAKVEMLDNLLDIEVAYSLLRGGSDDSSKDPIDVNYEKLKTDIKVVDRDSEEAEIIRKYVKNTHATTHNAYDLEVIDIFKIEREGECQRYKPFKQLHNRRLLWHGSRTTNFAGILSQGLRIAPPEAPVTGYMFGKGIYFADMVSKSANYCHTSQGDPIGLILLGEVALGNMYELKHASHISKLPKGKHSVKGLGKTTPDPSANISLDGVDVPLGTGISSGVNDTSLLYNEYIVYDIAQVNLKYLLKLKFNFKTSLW

Row | SMILES | inhibition at 0.001 µM [%]
1 | O=C(CCc1cc2cccc(F)c2c(=O)[nH]1)N1CCN(C(=O)C2CCC2)CC1 [Example 178, 3-(3-(4-(cyclobutanecarbonyl)piperazin-1-yl)-3-oxopropyl)-8-fluoroisoquinolin-1(2H)-one] | < 50
2 | Cc1cc(F)cc2c(=O)[nH]c(CCC(=O)N3CCN(C(=O)C4CCCCC4)CC3)cc12 [Example 173, 3-(3-(4-(cyclohexanecarbonyl)piperazin-1-yl)-3-oxopropyl)-7-fluoro-5-methylisoquinolin-1(2H)-one] | < 50
3 | Cc1ccc(F)c2c(=O)[nH]c(CCC(=O)N3CC=C(c4ccccc4F)CC3)cc12 [Example 138, 8-fluoro-3-(3-(4-(2-fluorophenyl)-3,6-dihydropyridin-1(2H)-yl)-3-oxopropyl)-5-methylisoquinolin-1(2H)-one] | < 50
4 | N#Cc1ccc(C2=CCN(CCCc3cc4ncccc4c(=O)[nH]3)CC2)nc1 [Example 235, 1′-(3-(5-oxo-5,6-dihydro-1,6-naphthyridin-7-yl)propyl)-1′,2′,3′,6′-tetrahydro-[2,4′-bipyridine]-5-carbonitrile] | < 50
5 | Cc1ccc(F)c2c(=O)[nH]c(CCCN3C4CCC3CN(c3ccc(C#N)cn3)C4)cc12 [Example 199] | < 50
6 | Cc1ccc(F)c2c(=O)[nH]c(CCC(=O)N3CCN(c4cc(C#N)ccc4F)CC3)cc12 [Example 133, 4-fluoro-3-(4-(3-(8-fluoro-5-methyl-1-oxo-1,2-dihydroisoquinolin-3-yl)propanoyl)piperazin-1-yl)benzonitrile] | < 50
7 | O=c1[nH]c(CCCN2C3CCC2CN(c2ccc(F)cc2)C3)cc2ncccc12 [Example 230] | < 50
8 | N#Cc1ccc(C2=CCN(CCCc3cc4ncccc4c(=O)[nH]3)CC2)cn1 [Example 234, 1′-(3-(5-oxo-5,6-dihydro-1,6-naphthyridin-7-yl)propyl)-1′,2′,3′,6′-tetrahydro-[3,4′-bipyridine]-6-carbonitrile] | < 50
9 | Cc1ccc(F)c2c(=O)[nH]c(CCCN3CCN(C(=O)c4cccc(F)c4)CC3)cc12 [Example 65, 8-fluoro-3-(3-(4-(3-fluorobenzoyl)piperazin-1-yl)propyl)-5-methylisoquinolin-1(2H)-one] | < 50
10 | O=c1[nH]c(CCCN2CCN(c3ccc(F)cc3)CC2)cc2ncccc12 [Example 223, 7-(3-(4-(4-fluorophenyl)piperazin-1-yl)propyl)-1,6-naphthyridin-5(6H)-one] | < 50
11 | N#Cc1ccc(N2CCN(C(=O)CCc3cc4ccc(F)cc4c(=O)[nH]3)CC2)c(F)c1 [Example 100, 3-fluoro-4-(4-(3-(7-fluoro-1-oxo-1,2-dihydroisoquinolin-3-yl)propanoyl)piperazin-1-yl)benzonitrile] | < 50
12 | Cc1cc(F)cc2c(=O)[nH]c(CCCN3CCN(c4ccc(C#N)c(F)c4)CC3)cc12 [Example 38, 2-fluoro-4-(4-(3-(7-fluoro-5-methyl-1-oxo-1,2-dihydroisoquinolin-3-yl)propyl)piperazin-1-yl)benzonitrile] | < 50
13 | Cc1cc(F)cc2c(=O)[nH]c(CCCN3CC=C(c4ccc(C#N)cn4)CC3)cc12 [Example 60, 1′-(3-(7-fluoro-5-methyl-1-oxo-1,2-dihydroisoquinolin-3-yl)propyl)-1′,2′,3′,6′-tetrahydro-[2,4′-bipyridine]-5-carbonitrile] | < 50
14 | Cc1ccc(F)c2c(=O)[nH]c(CCC(=O)N3C4CCC3CN(c3ccc(F)cn3)C4)cc12 [Example 212, 8-fluoro-3-(3-(3-(5-fluoropyridin-2-yl)-3,8-diazabicyclo[3.2.1]octan-8-yl)-3-oxopropyl)-5-methylisoquinolin-1(2H)-one] | < 50
15 | Cc1ccc(F)c2c(=O)[nH]c(CCCN3CC=C(c4ccc(C#N)c(F)c4)CC3)cc12 [Example 55, 2-fluoro-4-(1-(3-(8-fluoro-5-methyl-1-oxo-1,2-dihydroisoquinolin-3-yl)propyl)-1,2,3,6-tetrahydropyridin-4-yl)benzonitrile] | 50 to 80
16 | Cc1cc(F)cc2c(=O)[nH]c(CCC(=O)N3CC=C(c4cc(C#N)ccc4F)CC3)cc12 [Example 160, 4-fluoro-3-(1-(3-(7-fluoro-5-methyl-1-oxo-1,2-dihydroisoquinolin-3-yl)propanoyl)-1,2,3,6-tetrahydropyridin-4-yl)benzonitrile] | < 50

Row | SMILES | inhibition at 0.001 µM [%]
17 | Cc1cc(F)cc2c(=O)[nH]c(CCCN3CCN(c4ccc(C#N)cc4)CC3)cc12 [Example 34, 4-(4-(3-(7-fluoro-5-methyl-1-oxo-1,2-dihydroisoquinolin-3-yl)propyl)piperazin-1-yl)benzonitrile] | < 50
18 | N#Cc1ccc(N2CCN(CCCc3cc4ccc(F)cc4c(=O)[nH]3)CC2)cn1 [Example 10, 5-(4-(3-(7-fluoro-1-oxo-1,2-dihydroisoquinolin-3-yl)propyl)piperazin-1-yl)picolinonitrile] | 50 to 80
19 | O=C(CCc1cc2ccc(F)cc2c(=O)[nH]1)N1CC=C(c2ccnc(F)c2)CC1 [Example 121, 7-fluoro-3-(3-(2′-fluoro-3,6-dihydro-[4,4′-bipyridine]-1(2H)-yl)-3-oxopropyl)isoquinolin-1(2H)-one] | < 50
20 | Cc1ccc(F)c2c(=O)[nH]c(CCC(=O)N3C4CCC3CC(O)C4)cc12 (stereo not drawn) [Example 269, 8-fluoro-3-(3-(3-hydroxy-8-azabicyclo[3.2.1]octan-8-yl)-3-oxopropyl)-5-methylisoquinolin-1(2H)-one] | < 50
21 | Cc1cc(F)cc2c(=O)[nH]c(CCC(=O)N3CCN(c4ccc(C#N)c(F)c4)CC3)cc12 [Example 153, 2-fluoro-4-(4-(3-(7-fluoro-5-methyl-1-oxo-1,2-dihydroisoquinolin-3-yl)propanoyl)piperazin-1-yl)benzonitrile] | < 50
22 | O=c1[nH]c(CCCN2C3CCC2CC(O)C3)cc2ncccc12 (stereo not drawn) [Example 271, 7-(3-(3-hydroxy-8-azabicyclo[3.2.1]octan-8-yl)propyl)-1,6-naphthyridin-5(6H)-one] | < 50
23 | N#Cc1ccc(N2CC3CCC(C2)N3C(=O)CCc2cc3ncccc3c(=O)[nH]2)cc1 [Example 246, 4-(8-(3-(5-oxo-5,6-dihydro-1,6-naphthyridin-7-yl)propanoyl)-3,8-diazabicyclo[3.2.1]octan-3-yl)benzonitrile] | < 50
24 | CC(C)C(=O)N1CCN(C(=O)CCc2cc3cccc(F)c3c(=O)[nH]2)CC1 [Example 186, 8-fluoro-3-(3-(4-isobutyrylpiperazin-1-yl)-3-oxopropyl)isoquinolin-1(2H)-one] | < 50
25 | N#Cc1cccc(N2CCN(C(=O)CCc3cc4cccc(F)c4c(=O)[nH]3)CC2)c1 [Example 77, 3-(4-(3-(8-fluoro-1-oxo-1,2-dihydroisoquinolin-3-yl)propanoyl)piperazin-1-yl)benzonitrile] | < 50
26 | N#Cc1ccc(NC2CCN(CCCc3cc4ncccc4c(=O)[nH]3)CC2)cn1 [Example 251, 5-((1-(3-(5-oxo-5,6-dihydro-1,6-naphthyridin-7-yl)propyl)piperidin-4-yl)amino)picolinonitrile] | < 50
27 | O=C(CCc1cc2ccc(F)cc2c(=O)[nH]1)N1CCN(C(=O)C2CCCC2)CC1 [Example 176, 3-(3-(4-(cyclopentanecarbonyl)piperazin-1-yl)-3-oxopropyl)-7-fluoroisoquinolin-1(2H)-one] | < 50
28 | Cc1cc(F)cc2c(=O)[nH]c(CCCN3CC=C(c4ccc(F)nc4)CC3)cc12 [Example 63, 7-fluoro-3-(3-(6-fluoro-3′,6′-dihydro-[3,4′-bipyridine]-1′(2′H)-yl)propyl)-5-methylisoquinolin-1(2H)-one] | < 50
29 | Cc1ccc(F)c2c(=O)[nH]c(CCCN3CC=C(c4ccc([N+](=O)[O-])cc4F)CC3)cc12 [Example 56, 8-fluoro-3-(3-(4-(2-fluoro-4-nitrophenyl)-3,6-dihydropyridin-1(2H)-yl)propyl)-5-methylisoquinolin-1(2H)-one] | < 50
30 | Cc1cc(F)cc2c(=O)[nH]c(CCC(=O)N3CCN(c4cc(F)cc(C#N)c4)CC3)cc12 [Example 166, 3-fluoro-5-(4-(3-(7-fluoro-5-methyl-1-oxo-1,2-dihydroisoquinolin-3-yl)propanoyl)piperazin-1-yl)benzonitrile] | < 50
31 | N#Cc1ccc(N2CCN(C(=O)CCc3cc4cccc(F)c4c(=O)[nH]3)CC2)nc1 [Example 71, 6-(4-(3-(8-fluoro-1-oxo-1,2-dihydroisoquinolin-3-yl)propanoyl)piperazin-1-yl)nicotinonitrile] | < 50
32 | Cc1cc(F)cc2c(=O)[nH]c(CCC(=O)N3CCN(c4ccc(F)cc4C#N)CC3)cc12 [Example 159, 5-fluoro-2-(4-(3-(7-fluoro-5-methyl-1-oxo-1,2-dihydroisoquinolin-3-yl)propanoyl)piperazin-1-yl)benzonitrile] | < 50

Same assay, conditions: PARP-1 enzyme activity

Row | SMILES | IC50 [nM]
33 | Cc1ccc(F)c2c(=O)[nH]c(CCCN3CC=C(c4ccc(C#N)c(F)c4)CC3)cc12 [Example 55, 2-fluoro-4-(1-(3-(8-fluoro-5-methyl-1-oxo-1,2-dihydroisoquinolin-3-yl)propyl)-1,2,3,6-tetrahydropyridin-4-yl)benzonitrile] | 1.77
